Values joined by “and” are separate entries in the source; they are usually repeats but may differ in a detail not shown here. Equal values may be shown once. Values belong to the compound of their own block, whether it stands above or below them.
System: 755483-174-R-J1-PDC complex spheroid growth, percent test/control
Assay: Anticancer human tumor 755483-174-R-J1-PDC patient-derived rhabdomyosarcoma cell line growth inhibition [Asc]
Settings: for viability, T/C: stronger effect = lower value
Experimental: Multicellular complex tumor spheroid response to apoptosis pathway targeting inhibitors Alrizomadlin, Pelcitoclax, and Dasminapant in combination with a variety of drugs and investigational agents in selected tumor cell lines
The MDM2 inhibitor alrizomadlin, the Bcl-2/Bcl-xL inhibitor pelcitoclax, and the IAPs inhibitor dasminapant were evaluated both individually and in combination with standard of care and investigational anticancer small molecules within a complex spheroid model of solid tumors. . Complex spheroids include a stromal component modeled by human endothelial cells (HUVEC) and fibroblasts modeled by human mesenchymal stem cells (MSCs). The concentration ranges selected for each drug and investigational agent were based upon clinically achievable concentrations if the clinical Cmax of the agent was known.
Compounds. The drugs and investigational agents: alrizomadlin (APG-115; NSC831270), pelcitoclax (APG-1252; NSC835773), dasminapant (APG-1387;NSC834197), TAK-243 (NSC785004), copanlisib (NSC809693), olaparib (NSC753686), talazoparib (NSC767125), cobimetinib (NSC 768068), eltanexor (KPT-8602, NSC 794443), abemaciclib (NSC 768073), sotorasib (NSC818433), adagrasib (NSC 831453), MRTX-1133 (NSC 836407), Iadademestat (ORY1001, NSC 806812), and RMC-4630 (NSC839698), were obtained from the NCI Developmental Therapeutics Program Chemical Repository. The FDA-approved anticancer drug set is available from the Developmental Therapeutics Program at https://dtp.cancer.gov/organization/dscb/obtaining/available plates.htm. […] The stock solutions were prepared in dimethyl sulfoxide (DMSO, Sigma-Aldrich, St. Louis, MO, cat. D2650) at 800-fold the tested concentration and stored at -70 degrees C prior to their use. All drugs and investigational agents were tested over a range starting from a high concentration at or near the clinical Cmax and decreasing in half-log increments. If the clinical Cmax for an agent had not been determined, the highest concentration tested was 10 microM.
The patient-derived cancer (PDC) cell lines include five colon adenocarcinomas: 186277-243-T-J2-PDC, 616215-338-R-J1-PDC, 439559-082-T-J2-PDC, 463943-066-T-J2-PDC, and 519858-162-T-J1-PDC; three pancreatic carcinomas: 323965-272-R-J2-PDC, 521955-158-R6-J3-PDC, and 521955-158-R2-J5-PDC; two uterine sarcomas: 327498-152-R-J2-PDC and 993429-296-R-J1-PDC; two rhabdomyosarcomas: 755483-174-R-J1-PDC and 772245-204-R-J1-PDC; two soft tissue sarcomas: 126254-015-R-J1-PDC and 494315-158-R-J1-PDC; two malignant fibrous histiocytomas: 317291-083-R-J1-PDC and 596521-263-R-J1-PDC; two breast carcinomas: 171881-019-R-J1-PDC and 885512-296-R-J2-PDC; and one ovarian carcinoma: 6556581-035-R-J-PDC were obtained from the NCI PDMR, (https://pdmr.cancer.gov). The established cell lines HSSY-2 synovial sarcoma (RRID:CVCL 8719), SYO-1 synovial sarcoma (RRID:CVCL_7146), MPNST malignant peripheral neural sheath tumor were obtained from the Sloan Kettering Institute. The following established cell lines were purchased from the American Type Culture Collection (ATCC, Manassas, VA), Sor the received from the NCI repository:, PANC-1 pancreatic carcinoma (CRL-1469, RRID:CVCL_0480), OVCAR-5 ovarian carcinoma (RRID:CVCL_1628), OVCAR-8 ovarian carcinoma (RRID:CVCL_1629), , MCF-7 breast carcinoma (CRL-12584, RRID:CVCL_0031), MDA-MB-231 breast carcinoma (CRL-12532, RRID:CVCL_0062), NCI-H1876 small cell lung carcinoma (CRL-5902, RRID:CVCL_1503), NCI-H510A small cell lung carcinoma (HTB-184, RRID:CVCL_1565), NCI-H1417 (CRL-5869, RRID:CVCL_1469), and NCI-H196 small cell lung carcinoma (CRL-5823, RRID:CVCL_1509). Dr. Peter Houghton (Greehey Children's Cancer Research Institute, University of Texas Health Science Center, San Antonio, TX) provided Rh-18 rhabdomyosarcoma (RRID:CVCL_1659). Pooled donor human umbilical vein endothelial cells (HUVEC, Lonza, cat. CC-2519) and human mesenchymal stem cells (hMSC, Lonza, cat. PT-2501) were purchased from Lonza (Walkersville, MD).
Cell Culture. […]
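Also: spheroids exposed to compounds for seven days before readout.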

Structure (SMILES): O=C(c1ccc(F)c(F)c1Nc1ccc(I)cc1F)N1CC(O)([C@@H]2CCCCN2)C1
- viability, T/C (compound 0.00316 µM): 109% and 82.3% and 101%
- viability, T/C (compound 0.01 µM): 117% and 73.6% and 104%
- viability, T/C (compound 0.0316 µM): 96.3% and 99.1% and 95.6%
- viability, T/C (compound 0.1 µM): 91.4% and 70.1% and 93.1%
- viability, T/C (compound 0.316 µM): 53.5% and 61.5% and 60.8%
- viability, T/C (compound 1 µM): 18.9% and 14.9% and 13.3%
- IC50 (curve of compound): 369 nM and 409 nM and 413 nM

Structure (SMILES): Cc1c(S(C)(=O)=O)c(-c2cc(F)cc(N3CCN(c4ccc(NS(=O)(=O)c5ccc(NC(CCN6CCC(C(=O)OCCCP(=O)(O)O)CC6)CSc6ccccc6)c(S(=O)(=O)C(F)(F)F)c5)cc4)CC3)c2)c(-c2ccc(Cl)cc2)n1C(C)C (stereo not given)
- viability, T/C (compound 10 µM): 41.7% [middle of 14 runs]

Structure (SMILES): Cc1nc(N2CCC3(CC2)COC(C)C3N)c(CO)nc1Sc1ccnc(N)c1Cl (stereo not given)
- viability, T/C (compound 0.00949 µM): 92.6% and 79% and 106%
- viability, T/C (compound 0.03 µM): 82.3% and 110% and 95.9%
- viability, T/C (compound 0.0949 µM): 82.2% and 74.3% and 36.2%
- viability, T/C (compound 0.3 µM): 47.3% and 50.9% and 53.9%
- viability, T/C (compound 0.949 µM): 31.6% and 34.4% and 28.9%
- viability, T/C (compound 3 µM): 22.1% and 20.2% and 18.8%
- IC50 (curve of compound): 291 nM and 325 nM and 73 nM

The next lines start with results.

- IC50 (curve of first compound, second compound 0.03 µM): 10.9 nM
- IC50 (curve of first compound, second compound 0.0949 µM): 12.4 nM
- IC50 (curve of first compound, second compound 0.3 µM): 5.94 nM
- IC50 (curve of first compound, second compound 0.949 µM): 7.98 nM
- IC50 (curve of first compound, second compound 3 µM): 1.56 nM
Structure (SMILES): Cn1ncnc1[C@H]1c2n[nH]c(=O)c3cc(F)cc(c23)N[C@@H]1c1ccc(F)cc1 + CCN1C(C(=O)NC23CCC(C(=O)O)(CC2)CC3)C(c2cccc(Cl)c2F)C2(C(=O)Nc3cc(Cl)ccc32)C12CCCCC2
- viability, T/C (second compound 0.03 µM, first compound 0.000316 µM): 64.6%
- viability, T/C (second compound 0.03 µM, first compound 0.001 µM): 64.9%
- viability, T/C (second compound 0.03 µM, first compound 0.00316 µM): 55.6%
- viability, T/C (second compound 0.03 µM, first compound 0.01 µM): 48.1%
- viability, T/C (second compound 0.03 µM, first compound 0.0316 µM): 45.9%
- viability, T/C (second compound 0.03 µM, first compound 0.1 µM): 35.1%
- viability, T/C (second compound 0.0949 µM, first compound 0.000316 µM): 70.1%
- viability, T/C (second compound 0.0949 µM, first compound 0.001 µM): 71.2%
- viability, T/C (second compound 0.0949 µM, first compound 0.00316 µM): 62.7%
- viability, T/C (second compound 0.0949 µM, first compound 0.01 µM): 54.1%
- viability, T/C (second compound 0.0949 µM, first compound 0.0316 µM): 31.1%
- viability, T/C (second compound 0.0949 µM, first compound 0.1 µM): 35.5%
- viability, T/C (second compound 0.3 µM, first compound 0.000316 µM): 64.9%
- viability, T/C (second compound 0.3 µM, first compound 0.001 µM): 55%
- viability, T/C (second compound 0.3 µM, first compound 0.00316 µM): 58.6%
- viability, T/C (second compound 0.3 µM, first compound 0.01 µM): 42.7%
- viability, T/C (second compound 0.3 µM, first compound 0.0316 µM): 30.4%
- viability, T/C (second compound 0.3 µM, first compound 0.1 µM): 32.6%
- viability, T/C (second compound 0.949 µM, first compound 0.000316 µM): 66.6%
- viability, T/C (second compound 0.949 µM, first compound 0.001 µM): 66.2%
- viability, T/C (second compound 0.949 µM, first compound 0.00316 µM): 74%
- viability, T/C (second compound 0.949 µM, first compound 0.01 µM): 45.4%
- viability, T/C (second compound 0.949 µM, first compound 0.0316 µM): 43.1%
- viability, T/C (second compound 0.949 µM, first compound 0.1 µM): 33.8%
- viability, T/C (second compound 3 µM, first compound 0.000316 µM): 59.6%
- viability, T/C (second compound 3 µM, first compound 0.001 µM): 51.8%
- viability, T/C (second compound 3 µM, first compound 0.00316 µM): 45.5%
- viability, T/C (second compound 3 µM, first compound 0.01 µM): 45.5%
- viability, T/C (second compound 3 µM, first compound 0.0316 µM): 41.6%
- viability, T/C (second compound 3 µM, first compound 0.1 µM): 39.3%

- IC50 (curve of first compound, second compound 0.1 µM): 235 nM
- IC50 (curve of first compound, second compound 0.316 µM): < 31.6 nM
- IC50 (curve of first compound, second compound 1 µM): < 31.6 nM
- IC50 (curve of first compound, second compound 3.16 µM): < 31.6 nM
- IC50 (curve of first compound, second compound 10 µM): < 31.6 nM
Structure (SMILES): C=C(F)C(=O)N1CCN(c2nc(OCC3CCCN3C)nc3c2CCN(c2cccc4cccc(Cl)c24)C3)CC1CC#N (stereo not given) + Cc1c(S(C)(=O)=O)c(-c2cc(F)cc(N3CCN(c4ccc(NS(=O)(=O)c5ccc(NC(CCN6CCC(C(=O)OCCCP(=O)(O)O)CC6)CSc6ccccc6)c(S(=O)(=O)C(F)(F)F)c5)cc4)CC3)c2)c(-c2ccc(Cl)cc2)n1C(C)C
- viability, T/C (second compound 0.1 µM, first compound 0.0316 µM): 46.4%
- viability, T/C (second compound 0.1 µM, first compound 0.1 µM): 58.9%
- viability, T/C (second compound 0.1 µM, first compound 0.316 µM): 49.7%
- viability, T/C (second compound 0.1 µM, first compound 1 µM): 30.2%
- viability, T/C (second compound 0.1 µM, first compound 3.16 µM): 8.51%
- viability, T/C (second compound 0.1 µM, first compound 10 µM): 0.1%
- viability, T/C (second compound 0.316 µM, first compound 0.0316 µM): 39.3%
- viability, T/C (second compound 0.316 µM, first compound 0.1 µM): 48.7%
- viability, T/C (second compound 0.316 µM, first compound 0.316 µM): 39.4%
- viability, T/C (second compound 0.316 µM, first compound 1 µM): 33.4%
- viability, T/C (second compound 0.316 µM, first compound 3.16 µM): 10.8%
- viability, T/C (second compound 0.316 µM, first compound 10 µM): 0.52%
- viability, T/C (second compound 1 µM, first compound 0.0316 µM): 40.9%
- viability, T/C (second compound 1 µM, first compound 0.1 µM): 37.9%
- viability, T/C (second compound 1 µM, first compound 0.316 µM): 32%
- viability, T/C (second compound 1 µM, first compound 1 µM): 20.3%
- viability, T/C (second compound 1 µM, first compound 3.16 µM): 5.1%
- viability, T/C (second compound 1 µM, first compound 10 µM): 1.75%
- viability, T/C (second compound 3.16 µM, first compound 0.0316 µM): 35%
- viability, T/C (second compound 3.16 µM, first compound 0.1 µM): 27%
- viability, T/C (second compound 3.16 µM, first compound 0.316 µM): 30.6%
- viability, T/C (second compound 3.16 µM, first compound 1 µM): 16.5%
- viability, T/C (second compound 3.16 µM, first compound 3.16 µM): 8.95%
- viability, T/C (second compound 3.16 µM, first compound 10 µM): 0.11%
- viability, T/C (second compound 10 µM, first compound 0.0316 µM): 42.9%
- viability, T/C (second compound 10 µM, first compound 0.1 µM): 41.7%
- viability, T/C (second compound 10 µM, first compound 0.316 µM): 34%
- viability, T/C (second compound 10 µM, first compound 1 µM): 20.6%
- viability, T/C (second compound 10 µM, first compound 3.16 µM): 11.8%
- viability, T/C (second compound 10 µM, first compound 10 µM): 0.16%
